Experimental data: patent US20210163437A1, “DERIVATIVES OF TRICYCLIC SPIROLACTONES AND USES THEREOF IN TREATMENT AND MANAGEMENT OF PAIN” (Yissum Research Development Company of The Hebrew …, priority 2017, published 2021)
“And” between values parts separate entries of the source, which are not always exact repeats. Identical values can stand only once. “Also recorded” adds a separate entry of the source. One block for each compound: values may come before it.

Columns and labels:
Type in all cases: cell-based
[1] = molecular target: T1, rat TRPV1 (rTRPV1) (Rattus norvegicus, UniProt O35433); test: live-cell calcium imaging of HEK293T cells transiently expressing rat TRPV1; details: compound 18 at 0.3 mM or 1 mM applied before compound 13 (1 mM)
T1 construct: expressed in transfected cells; host or cells: HEK293T (transient)
T1 sequence (O35433 whole entry): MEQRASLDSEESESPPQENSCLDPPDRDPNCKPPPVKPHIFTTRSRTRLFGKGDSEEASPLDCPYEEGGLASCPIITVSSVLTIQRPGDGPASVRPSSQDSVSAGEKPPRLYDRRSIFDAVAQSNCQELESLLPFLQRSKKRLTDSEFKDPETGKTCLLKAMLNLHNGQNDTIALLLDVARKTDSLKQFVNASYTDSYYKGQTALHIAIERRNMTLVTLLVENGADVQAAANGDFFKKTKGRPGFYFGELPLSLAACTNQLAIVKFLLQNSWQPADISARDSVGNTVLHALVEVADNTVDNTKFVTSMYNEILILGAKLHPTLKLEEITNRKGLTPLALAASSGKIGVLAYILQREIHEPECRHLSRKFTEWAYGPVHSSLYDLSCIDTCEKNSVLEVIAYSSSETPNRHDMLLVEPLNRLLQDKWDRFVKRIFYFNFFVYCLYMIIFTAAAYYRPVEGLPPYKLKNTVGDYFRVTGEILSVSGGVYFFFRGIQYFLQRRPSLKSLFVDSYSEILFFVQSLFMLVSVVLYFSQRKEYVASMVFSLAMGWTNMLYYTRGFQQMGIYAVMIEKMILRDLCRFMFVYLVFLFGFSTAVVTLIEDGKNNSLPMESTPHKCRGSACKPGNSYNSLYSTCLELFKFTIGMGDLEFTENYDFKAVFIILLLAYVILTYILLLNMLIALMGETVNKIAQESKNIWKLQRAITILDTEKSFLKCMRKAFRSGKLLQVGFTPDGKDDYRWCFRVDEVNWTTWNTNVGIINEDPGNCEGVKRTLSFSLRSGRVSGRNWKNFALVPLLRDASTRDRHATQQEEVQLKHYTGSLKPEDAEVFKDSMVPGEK

[2] = molecular target: T1, rat TRPV1 (rTRPV1); test: as above; details: for compound-evoked calcium response normalized to the capsaicin (2 μM)-evoked response: compound 300 μM (0.3 mM), fura-2-loaded HEK293T transiently expressing rTRPV1, only capsaicin positive cells analyzed
Procedure: (3A) Top: Captured pseudocolor images of fura-2-loaded HEK293T cells transiently expressing rTRPV1, before (“Basal”) and after the application of synthesized tricyclic spirolactones (300 μM; ‘Comp.’), followed by the subsequent application of capsaicin (2 μM; “Cap”). Scale bar indicates level of intracellular calcium. Bottom: Box and whiskers plot showing the indicated compound (300 μM)-evoked calcium response of HEK293T cells expressing rTRPV1, normalized to the capsaicin (2 μM)-evoked response. Boxes represent the mean of 3-4 independent experiments (each n≥50 cells); only capsaicin-positive cells were analyzed. Statistical significance between the different compounds' normalized responses is indicated as follows: *p≤0.05; ***p≤0.001; ns, no statistical significance (ANOVA followed by multiple comparison test). (3B) Top: Captured pseudocolor images of fura-2-loaded HEK293T cells transiently expressing the wt rTRPV1 (“rV1”; top), chicken TRPV1 (“cV1”; middle), or the VBS mutated receptor rTRPV1-Y511G (“YG”; bottom), before (“Basal”) and after the application of compound 13 (300 μM; “13”), which was followed by the subsequent application of 2-APB (300 μM; “2APB”). Scale bar indicates level of intracellular calcium. Bottom: changes with time of intracellular calcium levels in fura-2-loaded HEK293T expressing rat TRPV1 (“rTRPV1”; red line), rat TRPV1-Y511G (“rTRPV1(YG)”; purple line), and chicken TRPV1 (“cTRPV1”; orange line) in response to compound 13 (300 μM; “13”; light gray bar), which was followed by the subsequent application of 2-APB (300 μM; “2APB”; gray bar). Each trace represents an average of 75-130 cells sensitive to 2-APB. […] (3C) Top: Captured pseudocolor images of fura-2-loaded HEK293T cells transiently expressing rTRPV1, before (“Basal”) and after the application of saturated tricyclic spirolactones (300 μM; “Comp.”), which was followed by the subsequent application of capsaicin (2 μM; “Cap”). Scale bar indicates the level of intracellular calcium. […] Boxes represent the mean of 3-4 independent experiments (each n≥50 cells); only capsaicin positive cells were analyzed. Statistical significance between the different compounds' normalized responses is indicated as follows: **p≤0.01; ***p≤0.001; ns, no statistical significance (ANOVA followed by multiple comparison test).
(§1) To examine whether the compact tricyclic spirolactones activate TRPV1, we scanned a library of synthesized compounds illustrated in FIG. 2C. […] To test this possibility, we recoded the response of rTRPV1 transiently expressed in HEK293T cells in the whole-cell or inside-out patch clamp configurations.

[3] = molecular target: T2, rTRPV1 (Rattus norvegicus, UniProt O35433); test: patch clamp of rTRPV1 transiently expressed in HEK293T cells; details: voltage ramps between −80 and +80 mV; compound 32 1 mM, capsaicin 2 μM
T2 construct: expressed in transfected cells
T2 sequence (O35433 whole entry): as above
From the text: (§2) Each point represents the average (±SEM) response of 50 cells. […] Scale bar indicates level of intracellular calcium.
as §1
TRPV1 is a non-selective cationic ion channel with a typical current profile. To examine whether our novel structure architecture activates the channel similarly as other VBS -associated agonists, we analyzed the current profile using the whole-cell configuration of the patch clamp technique. Using voltage ramps between −80 and +80 mV, we analyzed the channel response to 32 and capsaicin.

[4] = molecular target: T2, rTRPV1; test: calcium imaging of rTRPV1 stably expressed in HEK293 cells (concentration-response, capsazepine block); details: for EC50 / Hill coefficient n: normalized concentration-response, fit to the Hill equation, rTRPV1 stably expressed in HEK293 cells
From the text: as §2
To further analyze the role of the aromatic anchor in TRPV1 activation by spirolactones, we compared the affinity of 13 to its vanilloid derivative 32.

[5] = molecular target: T3, rTRPV1(Y511G) (Rattus norvegicus, UniProt O35433, Y511G); test: live-cell calcium imaging of HEK293T cells transiently expressing VBS-mutated rat TRPV1; details: compound 300 μM; followed by 2-APB 300 μM
T3 construct: expressed in transfected cells; host or cells: HEK293T (transient)
T3 sequence (O35433 whole entry Y511G): as the sequence (O35433 whole entry) above, with Y511G counted along it
Procedure: (§3) (3A) Top: Captured pseudocolor images of fura-2-loaded HEK293T cells transiently expressing rTRPV1, before (“Basal”) and after the application of synthesized tricyclic spirolactones (300 μM; ‘Comp.’), followed by the subsequent application of capsaicin (2 μM; “Cap”). Scale bar indicates level of intracellular calcium. Bottom: Box and whiskers plot showing the indicated compound (300 μM)-evoked calcium response of HEK293T cells expressing rTRPV1, normalized to the capsaicin (2 μM)-evoked response. Boxes represent the mean of 3-4 independent experiments (each n≥50 cells); only capsaicin-positive cells were analyzed. Statistical significance between the different compounds' normalized responses is indicated as follows: *p≤0.05; ***p≤0.001; ns, no statistical significance (ANOVA followed by multiple comparison test). (3B) Top: Captured pseudocolor images of fura-2-loaded HEK293T cells transiently expressing the wt rTRPV1 (“rV1”; top), chicken TRPV1 (“cV1”; middle), or the VBS mutated receptor rTRPV1-Y511G (“YG”; bottom), before (“Basal”) and after the application of compound 13 (300 μM; “13”), which was followed by the subsequent application of 2-APB (300 μM; “2APB”). Scale bar indicates level of intracellular calcium. […] Boxes represent the mean of 3-4 independent experiments (each n≥50 cells); only capsaicin positive cells were analyzed. […]

[6] = test system: chicken TRPV1; test: live-cell calcium imaging of HEK293T cells transiently expressing chicken TRPV1; details: compound 300 μM; followed by 2-APB 300 μM
Procedure: as §3

[7] = test system: acutely dissociated trigeminal ganglia neurons; test: neuronal response of acutely dissociated trigeminal ganglia neurons; details: compared with capsaicin sensitivity
Procedure: To examine whether the compact tricyclic spirolactones activate TRPV1, we scanned a library of synthesized compounds illustrated in FIG. 2C. […] Although our compounds are less hydrophobic than other VBS-binding molecules (e.g., capsaicin), most synthesized compounds could not be prepared in physiological salt solutions (i.e., Ringer) at concentrations greater than 1 mM without adding cytotoxic levels of DMSO. […] To confirm that the observed calcium increase is a direct result of TRPV1 activation through the VBS, we used chicken TRPV1, which is insensitive to vanilloids28, and VBS-mutated rat TRPV1 (rTRPV1(Y511G)). […] The functionality and expression of these channels were verified by their sensitivity to 2-aminoethoxydiphenyl borate (2-APB), a non-VBS TRPV1 activator. We next investigated the selectivity of compound 13 to TRPV1 by examining the neuronal response of acutely dissociated trigeminal ganglia neurons. […] A possible explanation to the observed lower response of 13 in comparison to capsaicin might be the accessibility of the compound to the intracellular VBS. To test this possibility, we recoded the response of rTRPV1 transiently expressed in HEK293T cells in the whole-cell or inside-out patch clamp configurations.

Compound: O=C1C[C@@H]2CC[C@@H]3CCCC[C@]32O1 [Compound 18]
inhibitory effect on the response of compound 13 [1]: had no effect | compound-evoked calcium response normalized to the capsaicin (2 μM)-evoked response [2]: most dramatic decrease in the level of activation

Compound: C=C1C[C@H]2CCC[C@H]3CC(=O)O[C@@]23C1 [Compound 10]
compound-evoked calcium response normalized to the capsaicin (2 μM)-evoked response [2]: active compounds

Compound: O=C1O[C@@]23CC=CC[C@H]2CC[C@H]3[C@H]1Cc1ccccc1 [Compound 31]
compound-evoked calcium response normalized to the capsaicin (2 μM)-evoked response [2]: strongest response; also recorded: capsaicin-like activity

Compound: CC1C[C@H]2CCC[C@H]3CC(=O)O[C@@]23C1 (some centres unmarked) [Compound 15]
compound-evoked calcium response normalized to the capsaicin (2 μM)-evoked response [2]: active compounds

Compound: O=C1C[C@@H]2CC[C@@H]3CC=CC[C@]32O1 [Compound 13]
activation of VBS-mutated rTRPV1-Y511G (intracellular calcium) [5]: did not activate | activation of chicken TRPV1 (intracellular calcium) [6]: did not activate | EC50 [4]: 127 ± 8.9 µM | Hill coefficient n [4]: 2.7 and 2.7±0.5 | selectivity to TRPV1: neuronal response [7]: activated only capsaicin sensitive neurons | compound-evoked calcium response normalized to the capsaicin (2 μM)-evoked response [2]: unexpectedly robust response

Compound: COc1cc(CNC(=O)CCCC/C=C/C(C)C)ccc1O [capsaicin, reference compound]
current-voltage profile, whole-cell patch clamp [3]: robust, outwardly rectifying currents of similar magnitude

Further lines, with some results ahead:

EC50 [4]: 12.8 ± 1.6 µM | Hill coefficient n [4]: 1.4 and 1.4±0.2
Compound: COc1cc(C[C@H]2C(=O)O[C@@]34CC=CC[C@H]3CC[C@@H]24)ccc1O [Compound 32]
current-voltage profile, whole-cell patch clamp [3]: robust, outwardly rectifying currents of similar magnitude; also recorded: elicits the typical TRPV1 outwardly rectifying current | compound-evoked calcium response normalized to the capsaicin (2 μM)-evoked response [2]: strongest response; also recorded: capsaicin-like activity

compound-evoked calcium response normalized to the capsaicin (2 μM)-evoked response [2]: significant channel activation | time course of the evoked calcium response ([2]; compound 300 μM, compared to compound 13 or 32): transiently response
Compound: O=C1O[C@@]23CCCC[C@H]2CC[C@H]3[C@H]1Cc1ccccc1 [Compound 34]

inhibition of TRPV1 activation by compound 32 ([4]; CPZ 20 μM, pre-incubation or application after pre-activation by 32 (100 and 300 μM)): resulted in channel inhibition
Compound: Oc1cc2c(cc1O)CN(C(=S)NCCc1ccc(Cl)cc1)CCC2 [capsazepine, reference compound]

compound-evoked calcium response normalized to the capsaicin (2 μM)-evoked response [2]: no activity was detected
Compound: O=C1C[C@@H]2CC[C@H]3C/C(=C/c4ccccc4)C[C@@]23O1 [Compound 23]
